Measurements from US12030883B2, “Hetero-tricyclic compounds as inhibitors of KRAS” (Incyte Corporation, priority 2021, dated 2024).

Tests used:
KRAS G12D [1] = target: T1, KRAS G12D (Homo sapiens, UniProt P01116, G12D); assay: GDP-GTP exchange assay, KRAS G12D (bodipy-GDP/GppNHp, SOS1); format: biochemical; conditions: bodipy-loaded KRAS G12D 2.5 nM, 4 hours pre-incubation with inhibitor, SOS1 150 nM, GppNHp 500 uM; read-out: G12D_exchange (KRAS_G12D exchange assay IC50)
Description: (§1) The inhibitor potency of the exemplified compounds was determined in a fluorescence based guanine nucleotide exchange assay, which measures the exchange of bodipy-GDP (fluorescently labeled GDP) for GppNHp (Non-hydrolyzable GTP analog) to generate the active state of KRAS in the presence of SOS1 (guanine nucleotide exchange factor). Inhibitors were serially diluted in DMSO and a volume of 0.1 μL was transferred to the wells of a black low volume 384-well plate. Five μL/well volume of bodipy-loaded KRAS G12D or G12V diluted to a final concentration of 2.5 nM in assay buffer (25 mM Hepes pH 7.5, 50 mM NaCl, 10 mM MgCl2 and 0.01% Brij-35) was added to the plate and pre-incubated with inhibitor for 4 hours (G12D) or 3 hours (G12V) at ambient temperature. A cyclic peptide described to selectively bind G12D mutant (Sakamoto et al., BBRC 484.3 (2017), 605-611) or internal compounds with confirmed binding were used as positive controls in the assay plates. The exchange was initiated by the addition of a 5 μL/well volume containing 1 mM GppNHp and 300 nM SOS1 in assay buffer. The 10 μL/well reaction concentration of the bodipy-loaded KRAS G12D or G12V, GppNHp, and SOS1 were 2.5 nM, 500 uM, and 150 nM, respectively.
(§2) Either GraphPad prism or XLfit was used to analyze the data. The IC50 values were derived by fitting the data to a four parameter logistic equation producing a sigmoidal dose-response curve with a variable Hill coefficient. Prism equation: Y=Bottom+(Top−Bottom)/(1+10^((LogIC50-X)*Hill slope)); XLfit equation: Y=(A+((B−A)/(1+((X/C)^D)))) where X is the logarithm of inhibitor concentration and Y is the response.

KRAS G12V = KRAS G12V (Homo sapiens, UniProt P01116, G12V); assay: GDP-GTP exchange assay, KRAS G12V (bodipy-GDP/GppNHp, SOS1); format: biochemical; conditions: bodipy-loaded KRAS G12V 2.5 nM, 3 hours pre-incubation with inhibitor, SOS1 150 nM, GppNHp 500 uM; read-out: G12V_exchange (KRAS_G12V exchange assay IC50)
Chain of KRAS G12V (P01116 1-188 isoform P01116-2 G12V): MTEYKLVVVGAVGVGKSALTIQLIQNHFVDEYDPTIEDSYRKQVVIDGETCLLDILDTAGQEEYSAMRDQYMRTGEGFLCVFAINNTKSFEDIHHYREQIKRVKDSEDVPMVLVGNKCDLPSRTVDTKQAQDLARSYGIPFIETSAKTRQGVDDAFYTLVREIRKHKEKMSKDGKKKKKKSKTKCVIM
Description: as §1, §2

KRAS G12D [2] = target: T1, KRAS G12D; assay: KRAS_G12D pERK assay (cellular pERK HTRF assay); format: cell-based; design: host or cells: A427 or HPAF-II; conditions: KRAS G12D cells (A427, HPAF-II named in method), 2 hours incubation, Phospho-ERK 1/2 HTRF; read-out: G12D_PERK (KRAS_G12D pERK assay IC50)
Description: MIA PaCa-2 (KRAS G12C; ATCC® CRL-1420), A427 (KRAS G12D; ATCC® HTB53), HPAF-II (KRAS G12D; ATCC® CRL-1997) and NCI-H838 (KRAS WT; ATCC® CRL-5844) cells are purchased from ATCC and maintained in RPMI 1640 media supplemented with 10% FBS (Gibco/Life Technologies). The cells are plated at 5000 cells per well (8 uL) into Greiner 384-well low volume, flat-bottom, tissue culture treated white plates and incubated overnight at 37° C., 5% CO2. The next morning, test compound stock solutions are diluted in media at 3× the final concentration, and 4 uL are added to the cells. The plate is mixed by gentle rotation for 30 seconds (250 rpm) at room temperature. The cells are incubated with the KRAS G12C and G12D compounds for 4 hours or 2 hours respectively at 37° C., 5% CO2.
4 uL of 4× lysis buffer with blocking reagent (1:25) (Cisbio) are added to each well and plates are rotated gently (300 rpm) for 30 minutes at room temperature. 4 uL per well of Cisbio anti Phospho-ERK 1/2 d2 is mixed with anti Phospho-ERK 1/2 Cryptate (1:1) are added to each well, mixed by rotation and incubated overnight in the dark at room temperature. Plates are read on the Pherastar plate reader at 665 nm and 620 nm wavelengths. IC50 determination is performed by fitting the curve of inhibitor percent inhibition versus the log of the inhibitor concentration using the GraphPad Prism 7 software.

T1 sequence (P01116 1-188 isoform P01116-2 G12D): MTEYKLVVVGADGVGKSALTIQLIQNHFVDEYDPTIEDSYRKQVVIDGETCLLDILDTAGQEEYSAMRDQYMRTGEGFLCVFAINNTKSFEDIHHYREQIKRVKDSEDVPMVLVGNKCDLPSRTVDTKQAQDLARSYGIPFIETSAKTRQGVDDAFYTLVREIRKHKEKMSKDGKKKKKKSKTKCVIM

| Compound | IC50 (KRAS G12D [1]) [nM] | IC50 (KRAS G12V) [nM] | IC50 (KRAS G12D [2]) [nM] |
| --- | --- | --- | --- |
| CNC(=O)c1ccc(-c2nc3c(F)c(-c4cc(O)cc5ccccc45)c(CCC#N)cc3c3c2NC(=O)CN3C2C3CNC2C3)cn1 (single isomer, unassigned) [Example 5a, 5-(1-((endo)-2-Azabicyclo[2.1.1]hexan-5-yl)-9-(2-cyanoethyl)-7-fluoro-8-(3-hydroxynaphthalen-1-yl)-3-oxo-1,2,3,4-tetrahydropyrazino[2,3-c]quinolin-5-yl)-N-methylpicolinamide] | ≤ 100 | ≤ 100 | 5000 to 10000 |
| Cn1cnc(-c2nc3c(F)c(-c4cc(O)cc5ccccc45)c(CCC#N)cc3c3c2NC(=O)CN3C2C3CNC2C3)c1 (single isomer, unassigned) [Example 7a, 3-(1-((endo)-2-Azabicyclo[2.1.1]hexan-5-yl)-7-fluoro-8-(3-hydroxynaphthalen-1-yl)-5-(1-methyl-1H-imidazol-4-yl)-3-oxo-1,2,3,4-tetrahydropyrazino[2,3-c]quinolin-9-yl)propanenitrile] | ≤ 100 | ≤ 100 | 100 to 1000 |
| C[C@H](Oc1nc2c(F)c(-c3cccc(Cl)c3Cl)c(CCC#N)cc2c2c1NC(=O)CN2C1C2CNC1C2)[C@@H]1CCCN1C (single isomer, unassigned) [Example 2b] | ≤ 100 | ≤ 100 | 100 to 1000 |
